The values that follow come from article PMC7277860, “Viridistratins A−C, Antimicrobial and Cytotoxic Benzo[j]fluoranthenes from Stromata of Annulohypoxylon viridistratum (Hypoxylaceae, Ascomycota)” (Biomolecules, 2020).

A short description of the series: Cytotoxicity assay (MTT). Particulars: for IC50: 5 days. The format is cell-based, human. The procedure: Compounds 1−5 were dissolved as described in the previous section. The cytotoxicity assay was initially performed against the cell lines L929 (mouse fibroblasts), as well as KB 3.1 (human papillomavirus-related endocervical adenocarcinoma), as described previously. A detailed protocol, as well as sources of the cell lines, is given in the Supporting Information.
After incubating the cell lines with a serial dilution of the test compounds (final range: 37 to 0.6 × 10^−3 µg/mL) for five days, the cells were dyed using 3-(4,5-dimethyl-2-thiazolyl)-2,5-diphenyl-2H-tetrazolium bromide (MTT), which is only converted to its purple formazan derivative by living cells. Then, the intensity of the purple derivative in relation to cells without additive (set to 100% viability) for each concentration of a test compound was quantified. For this, the absorption at 595 nm was measured using a microplate reader to calculate the percentage of cell viability. From this, the half-maximum inhibitory concentration (IC50, in µM) was calculated.
If an inhibition of cell viability with an IC50 < 50 µM was observed, further cell lines were subjected to the test compounds: PC-3 (human prostate adenocarcinoma), SK-OV-3 (human ovary adenocarcinoma), MCF-7 (human breast adenocarcinoma), A431 (human squamous carcinoma) and A549 (human lung carcinoma).
Protocol: Cytotoxicity Assay
The ass ay w as co nducted i n 9 6-well flat-bottom mi crotiter plates using the parameters summarised i n Tabl e S 2 and as described in [S2].
Cell lines L929 and KB 3.1 were incubated at 37 °C under 10 % CO2 in Gibco™ DMEM medium (Thermo Fisher Scientific, Waltham, MA, USA) supplemented with 10 % FBS. A microtiter plate was filled with 120 µL of this suspension (50,000/mL) in each well.
Seperately, another microtiter plate was filled with 100 µL of growth medium in each well. Then, 50 µL of the test compound sol utions (1 mg/mL) were given to wells of the first column in two replicates (one compound per row). C ell s wi thout addi ti ves, Me O H, and MeOH: DMSO 9+1 were used as negative controls. Starting from the first column, 50 µL of the solutions were gradually transferred to the ne xt col umn, the conte nts thoroughl y mi xed, and 50 µ L transferred to the following column. This created a serial dilution of the test compounds r anging from 333 µg/mL to 1.9 ×10−3 µg/mL. The remai ni ng 50 µL after column twelve were discarded. From this microtiter plate, 60 µL of the sol utions from 111 µg/ mL to 1.9×10−3 µg/mL were given to the first plate containing 120 µL of the cel l suspens i ons (i.e. the hi ghest concentrati on 333 µg/mL was not used). T his resulted i n fi nal compound concent rati ons rangi ng from […]
After 5 days of incubation under the aforeme ntioned i ncubati on condi ti ons, the half maximum inhibitory concentrati ons (IC 50) were determined using a colorimetric tetrazolium dye MTT assay [S3].
For this, 20 µL of a 5 mg/mL solution of 3-( 4 ,5 -dimethyl-2-thi azo l yl)-2 ,5 -di phenyl -2H-tetrazolium bromide (MTT) w ere added to each well and incubated for two hours at 37 °C. Then, the microtiter plate was centrifuged (3,000 r p m, 5 mi n) and the supernat ant remo ved by ho l di ng the pl ate upsi de-do wn and gentle shaking. Afterwards, the wells were washed using 100 µL of phosph ate buffered saline (PBS).
The plate was again centrifuged and the supernatant removed as described before. Then, 100 µL of an isopropanol:HCl solution (1L i sopropanol+4 mL HCl 37 % w/v) were added to the wells. After i ncubati ng fo r 10 mi n at ambi ent te mperature, the a bso r pti o n of the well s at 595 nm was measured wi th an I nfi ni te ® 200 Pro microplate reader (TECAN, Männedorf, Schweiz).
The absorption values of the cells without additives were averaged and set to 100 % cell viability.
Then, t he me ans of absorption of the two compound replicates were set in relation to the blank media.
These percentage values were plotted a gainst the concentration range (37 µg/mL to 0.6×10 −3 µg/mL). […]

Where [1] appears, read: A431 human squamous carcinoma cells, A431 human squamous AC.
[2] abbreviates: A549 human lung carcinoma cells, A549 human lung carcinoma.
Setting [3] is: MCF-7 human breast adenocarcinoma cells, MCF-7 human breast AC.
[4] abbreviates: PC-3 human prostate adenocarcinoma cells, PC-3 human prostate AC.
[5] abbreviates: SK-OV-3 human ovary adenocarcinoma cells, SK-OV-3 human ovary AC.

On to `O=C1C[C@H]2C(=C3CCC(=O)c4c(O)ccc2c43)c2cccc(O)c21` [Compound 4, truncatone A], for which the IC50 reads like this: (A431 human squamous AC) 5.7 µM; (A549 human lung carcinoma) 17 µM; (MCF-7 human breast AC) 8.8 µM; (PC-3 human prostate AC) 44 µM; (SK-OV-3 human ovary AC) 66 µM.

As to `O=C1CCC(=O)c2c1c(O)cc1c2-c2ccc(O)c3c(O)ccc-1c23` [Compound 5, truncatone C], the IC50 at 5 days was 16.3 µM under setting [1]; 27.1 µM under setting [2]; 7.8 µM under setting [3]; 25.6 µM under setting [4]; 33.1 µM under setting [5].

In the case of `Oc1cccc2c3c(ccc12)-c1ccc(O)c2c(O)ccc-3c12` [Compound 1, viridistratin A], the IC50 at 5 days came to 8.7 µM under setting [1]; 20 µM under setting [2]; 9.7 µM under setting [3]; 23.7 µM under setting [4]; 56.7 µM under setting [5].

With `COc1cccc2c3c(ccc12)-c1ccc(O)c2c(O)ccc-3c12` [Compound 2, viridistratin B], the IC50 at 5 days stood at 1.1 µM under setting [1]; 1.4 µM under setting [2]; 5.1 µM under setting [3]; 9.9 µM under setting [4]; 7.3 µM under setting [5].

As usually defined, the IC50 is the point on the concentration scale where inhibition reaches its midpoint. Low readings indicate greater potency, high ones weaker potency.
